According to patent US20130303509A1, “NAMPT INHIBITORS” (AbbVie Inc., priority 2012, published 2013):

tested on: PC3 cells; experiment: NAMPT Cell Proliferation Assay; format: cell-based; details: Homo sapiens, PC-3, 120 h, 5 days incubation, cell viability by Cell Titer Glo
Procedure, shortened: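 Five-day CellTiter-Glo viability readout in PC3 cells grown in RPMI/10% heat-inactivated FBS. Compounds added after overnight attachment as a 10-fold dilution series, […]. Percent inhibition fitted to sigmoidal dose-response to derive IC50.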

Row | Structure (SMILES) | IC50 [nM]
1 | CCC(CC)CN1CCC(c2ccc(NC(=O)C3CN(c4cccnc4)C3)cc2)CC1 [Example 92, N-{4-[1-(2-ethylbutyl)piperidin-4-yl]phenyl}-1-(pyridin-3-yl)azetidine-3-carboxamide] | 24
2 | CC(C)CCN1CCC(c2ccc(NC(=O)C3CN(c4cccnc4)C3)cc2)CC1 [Example 93, N-{4-[1-(3-methylbutyl)piperidin-4-yl]phenyl}-1-(pyridin-3-yl)azetidine-3-carboxamide] | 58.4
3 | CC(C)CN1CCC(c2ccc(NC(=O)C3CN(c4cccnc4)C3)cc2)CC1 [Example 94, N-{4-[1-(2-methylpropyl)piperidin-4-yl]phenyl}-1-(pyridin-3-yl)azetidine-3-carboxamide] | 65.7
4 | CCCN1CCC(c2ccc(NC(=O)C3CN(c4cccnc4)C3)cc2)CC1 [Example 95, N-[4-(1-propylpiperidin-4-yl)phenyl]-1-(pyridin-3-yl)azetidine-3-carboxamide] | 73.9
5 | COc1ccncc1N1CC(C(=O)Nc2ccc(C3CCN(C(=O)C(C)(C)O)CC3)cc2)C1 [Example 96, N-{4-[1-(2-hydroxy-2-methylpropanoyl)piperidin-4-yl]phenyl}-1-(4-methoxypyridin-3-yl)azetidine-3-carboxamide] | 7610
6 | CC(C)(O)C(=O)N1CCC(c2ccc(NC(=O)C3CN(c4cnccc4C#N)C3)cc2)CC1 [Example 97, 1-(4-cyanopyridin-3-yl)-N-{4-[1-(2-hydroxy-2-methylpropanoyl)piperidin-4-yl]phenyl}azetidine-3-carboxamide] | 922
7 | CCCCC(=O)N1CCC(c2ccc(NC(=O)C3CN(c4cccnc4)C3)cc2)CC1 [Example 98, N-[4-(1-pentanoylpiperidin-4-yl)phenyl]-1-(pyridin-3-yl)azetidine-3-carboxamide] | 6.05
8 | CCC(C)CC(=O)N1CCC(c2ccc(NC(=O)C3CN(c4cccnc4)C3)cc2)CC1 (stereo not shown) [Example 99, N-{4-[1-(3-methylpentanoyl)piperidin-4-yl]phenyl}-1-(pyridin-3-yl)azetidine-3-carboxamide] | 5.72
9 | O=C(Nc1ccc(C2CCN(C(=O)CC3C[C@@H]4CC[C@H]3C4)CC2)cc1)C1CN(c2cccnc2)C1 (stereo partly drawn) [Example 100, N-(4-{1-[(1S,4R)-bicyclo[2.2.1]hept-2-ylacetyl]piperidin-4-yl}phenyl)-1-(pyridin-3-yl)azetidine-3-carboxamide] | 6.13
10 | O=C(Nc1ccc(C2CCN(C(=O)CC3CCCC3)CC2)cc1)C1CN(c2cccnc2)C1 [Example 101, N-{4-[1-(cyclopentylacetyl)piperidin-4-yl]phenyl}-1-(pyridin-3-yl)azetidine-3-carboxamide] | 0.31
11 | CC1CC1C(=O)N1CCC(c2ccc(NC(=O)C3CN(c4cccnc4)C3)cc2)CC1 (stereo not shown) [Example 102, N-(4-{1-[(2-methylcyclopropyl)carbonyl]piperidin-4-yl}phenyl)-1-(pyridin-3-yl)azetidine-3-carboxamide] | 0.59
12 | O=C(Nc1ccc(C2CCN(C(=O)CN3CCOCC3)CC2)cc1)C1CN(c2cccnc2)C1 [Example 103, N-{4-[1-(morpholin-4-ylacetyl)piperidin-4-yl]phenyl}-1-(pyridin-3-yl)azetidine-3-carboxamide] | 1.44
13 | O=C(Nc1ccc(C2CCN(C(=O)c3ccoc3)CC2)cc1)C1CN(c2cccnc2)C1 [Example 104, N-{4-[1-(furan-3-ylcarbonyl)piperidin-4-yl]phenyl}-1-(pyridin-3-yl)azetidine-3-carboxamide] | 0.18
14 | O=C(Nc1ccc(C2CCN(C(=O)CN3CCCC3)CC2)cc1)C1CN(c2cccnc2)C1 [Example 105, 1-(pyridin-3-yl)-N-{4-[1-(pyrrolidin-1-ylacetyl)piperidin-4-yl]phenyl}azetidine-3-carboxamide] | 6.17
15 | O=C1CC[C@H](C(=O)N2CCC(c3ccc(NC(=O)C4CN(c5cccnc5)C4)cc3)CC2)N1 [Example 106, N-{4-[1-(5-oxo D-prolyl)piperidin-4-yl]phenyl}-1-(pyridin-3-yl)azetidine-3-carboxamide] | 61.8
16 | CN(C)CCC(=O)N1CCC(c2ccc(NC(=O)C3CN(c4cccnc4)C3)cc2)CC1 [Example 107, N-{4-[1-(N,N-dimethyl-beta-alanyl)piperidin-4-yl]phenyl}-1-(pyridin-3-yl)azetidine-3-carboxamide] | 6.88
17 | O=C(Nc1ccc(C2CCN(C(=O)c3nccs3)CC2)cc1)C1CN(c2cccnc2)C1 [Example 108, 1-(pyridin-3-yl)-N-{4-[1-(1,3-thiazol-2-ylcarbonyl)piperidin-4-yl]phenyl}azetidine-3-carboxamide] | 0.13
18 | O=C(Nc1ccc(C2CCN(C(=O)c3ccsc3)CC2)cc1)C1CN(c2cccnc2)C1 [Example 109, 1-(pyridin-3-yl)-N-{4-[1-(thiophen-3-ylcarbonyl)piperidin-4-yl]phenyl}azetidine-3-carboxamide] | 0.66

More lines, now with the values ahead:

Row | IC50 [nM] | Structure (SMILES)
19 | 0.26 | CC1(C(=O)N2CCC(c3ccc(NC(=O)C4CN(c5cccnc5)C4)cc3)CC2)CC1 [Example 110, N-(4-{1-[(1-methylcyclopropyl)carbonyl]piperidin-4-yl}phenyl)-1-(pyridin-3-yl)azetidine-3-carboxamide]
20 | 0.64 | Cc1ccsc1C(=O)N1CCC(c2ccc(NC(=O)C3CN(c4cccnc4)C3)cc2)CC1 [Example 111, N-(4-{1-[(3-methylthiophen-2-yl)carbonyl]piperidin-4-yl}phenyl)-1-(pyridin-3-yl)azetidine-3-carboxamide]
21 | 0.76 | O=C(Nc1ccc(C2CCN(C(=O)CCC(F)(F)F)CC2)cc1)C1CN(c2cccnc2)C1 [Example 112, 1-(pyridin-3-yl)-N-{4-[1-(4,4,4-trifluorobutanoyl)piperidin-4-yl]phenyl}azetidine-3-carboxamide]
22 | 6.34 | CN1CCN(CC(=O)N2CCC(c3ccc(NC(=O)C4CN(c5cccnc5)C4)cc3)CC2)CC1 [Example 113, N-(4-{1-[(4-methylpiperazin-1-yl)acetyl]piperidin-4-yl}phenyl)-1-(pyridin-3-yl)azetidine-3-carboxamide]
23 | 18.1 | O=C1CC[C@@H](C(=O)N2CCC(c3ccc(NC(=O)C4CN(c5cccnc5)C4)cc3)CC2)N1 [Example 114, N-{4-[1-(5-oxo-L-prolyl)piperidin-4-yl]phenyl}-1-(pyridin-3-yl)azetidine-3-carboxamide]
24 | 0.4 | CCOCCC(=O)N1CCC(c2ccc(NC(=O)C3CN(c4cccnc4)C3)cc2)CC1 [Example 115, N-{4-[1-(3-ethoxypropanoyl)piperidin-4-yl]phenyl}-1-(pyridin-3-yl)azetidine-3-carboxamide]
25 | 0.64 | CC(C)CCC(=O)N1CCC(c2ccc(NC(=O)C3CN(c4cccnc4)C3)cc2)CC1 [Example 116, N-{4-[1-(4-methylpentanoyl)piperidin-4-yl]phenyl}-1-(pyridin-3-yl)azetidine-3-carboxamide]
26 | 0.63 | CC1(C(=O)N2CCC(c3ccc(NC(=O)C4CN(c5cccnc5)C4)cc3)CC2)CCCCC1 [Example 117, N-(4-{1-[(1-methylcyclohexyl)carbonyl]piperidin-4-yl}phenyl)-1-(pyridin-3-yl)azetidine-3-carboxamide]
27 | 0.22 | CC(=O)N1CCC(c2ccc(NC(=O)C3CN(c4cccnc4)C3)cc2)CC1 [Example 118, N-[4-(1-acetylpiperidin-4-yl)phenyl]-1-(pyridin-3-yl)azetidine-3-carboxamide]
28 | 0.19 | O=C(Nc1ccc(C2CCN(C(=O)CC3CCCCC3)CC2)cc1)C1CN(c2cccnc2)C1 [Example 119, N-{4-[1-(cyclohexylacetyl)piperidin-4-yl]phenyl}-1-(pyridin-3-yl)azetidine-3-carboxamide]
29 | 0.23 | CC(=O)N[C@@H](CC(C)C)C(=O)N1CCC(c2ccc(NC(=O)C3CN(c4cccnc4)C3)cc2)CC1 [Example 120, N-{4-[1-(N-acetyl-L-leucyl)piperidin-4-yl]phenyl}-1-(pyridin-3-yl)azetidine-3-carboxamide]
30 | 0.62 | CCC(=O)N1CCC(c2ccc(NC(=O)C3CN(c4cccnc4)C3)cc2)CC1 [Example 121, N-[4-(1-propanoylpiperidin-4-yl)phenyl]-1-(pyridin-3-yl)azetidine-3-carboxamide]
31 | 0.61 | O=C(Nc1ccc(C2CCN(C(=O)CC(F)(F)F)CC2)cc1)C1CN(c2cccnc2)C1 [Example 122, 1-(pyridin-3-yl)-N-{4-[1-(3,3,3-trifluoropropanoyl)piperidin-4-yl]phenyl}azetidine-3-carboxamide]
32 | 1.03 | COCCOCC(=O)N1CCC(c2ccc(NC(=O)C3CN(c4cccnc4)C3)cc2)CC1 [Example 123, N-(4-{1-[(2-methoxyethoxy)acetyl]piperidin-4-yl}phenyl)-1-(pyridin-3-yl)azetidine-3-carboxamide]
33 | 1.44 | O=C(Nc1ccc(C2CCN(C(=O)CCN3CCOCC3)CC2)cc1)C1CN(c2cccnc2)C1 [Example 124, N-(4-{1-[3-(morpholin-4-yl)propanoyl]piperidin-4-yl}phenyl)-1-(pyridin-3-yl)azetidine-3-carboxamide]
34 | 0.24 | CC(C)(C)C(=O)N1CCC(c2ccc(NC(=O)C3CN(c4cccnc4)C3)cc2)CC1 [Example 125, N-{4-[1-(2,2-dimethylpropanoyl)piperidin-4-yl]phenyl}-1-(pyridin-3-yl)azetidine-3-carboxamide]
35 | 0.26 | Cc1ccc(C(=O)N2CCC(c3ccc(NC(=O)C4CN(c5cccnc5)C4)cc3)CC2)s1 [Example 126, N-(4-{1-[(5-methylthiophen-2-yl)carbonyl]piperidin-4-yl}phenyl)-1-(pyridin-3-yl)azetidine-3-carboxamide]
36 | 0.14 | O=C(Nc1ccc(C2CCN(C(=O)c3cccs3)CC2)cc1)C1CN(c2cccnc2)C1 [Example 127, 1-(pyridin-3-yl)-N-{4-[1-(thiophen-2-ylcarbonyl)piperidin-4-yl]phenyl}azetidine-3-carboxamide]
37 | 0.16 | Cn1cccc1C(=O)N1CCC(c2ccc(NC(=O)C3CN(c4cccnc4)C3)cc2)CC1 [Example 128, N-(4-{1-[(1-methyl-1H-pyrrol-2-yl)carbonyl]piperidin-4-yl}phenyl)-1-(pyridin-3-yl)azetidine-3-carboxamide]
